# Marks after values point to notes of the source that are not given here.
# Assays:
# Drosophila melanogaster [1] = assay: negative geotaxis assay, height climbed by individual flies; format: in vivo
# Description: (§1) Unless otherwise mentioned, standard methods of fly manipulation were followed. Standard fly medium consisting of agar-agar, maize powder, brown sugar, dried yeast and nipagin was used. Flies were cultured at 22±1° C., 60% RH, and 12 hrs light (9 AM to 9 PM) and 12 hours dark cycle. D. melanogaster wild type Oregon-R strain was used in the experiment. To obtain males for control and drug treatment, flies from identical cultures grown in glass vials were first allowed to lay eggs in milk bottles containing medium. Flies were shifted to fresh bottles every 12 hr. First 4 sets of bottles were discarded. Flies that emerged in subsequent bottles were only used. Those that emerged in the beginning were first discarded and then flies were collected twice at 12 hr interval. Flies collected each time were kept separately in a single bottle. Two days after first collection, males and females from both the bottles were separated. Males were then pooled together and shifted to a new bottle. Flies were used for control or drug treatment two days later.
# Following morning after pooling males for treatment, drugs (Sigma-Aldrich Co, St. Louis, U.S.A.) were first dissolved in distilled water at following concentration: 33.3 mg/ml of strychnine (STR), 40 mg/ml of pentylenetetrazol (PTZ), 20 mg/ml of tetraethylammonium chloride (TEA), 10 mg/ml of lithium […] (LICA) and 2 mg/ml of nicotine (NICO). Appropriate volume of freshly made drug solutions were then poured in molten fly media, and mixed thoroughly, to achieve a final concentration of 3.33 mg/ml of STR, 4 mg/ml of PTZ, 2 mg/ml of TEA, 1 mg/ml of LICA, and 0.2 mg/ml of NICO. For control, i.e., normal food (NF), distilled water of same volume as drug solution was added in the medium and mixed. Following this, the molten media was dispensed in glass vials, stored overnight at 4° C. and then used for above treatment of flies. Thirty male flies were shifted to each of the […] treatment vials, NF, STR, PTZ, TEA, LICA and NICO. Flies were maintained at 22±1° C., 60% RH, and 12 hrs light (9 AM to 9 PM) and 12 hours dark cycle.
# On 22nd day of the beginning of drug treatment, three males from each treatment were separately mated to a single virgin female each. The females were grown on NF and were never exposed to any drug at any time. The F1 progenies resulting from each pair mating were pooled together before being further used. F2 generation was obtained through mating in mass the F1 progenies. F1 to F2 flies were never exposed to any drug at any time.
# Negative geotaxis assays for measuring height climbed and climbing speed, and horizontal locomotion assay for measuring distance walked—were performed at room temperature, between 9 AM to 9 PM. They were all performed at a specified area in a room, where same light sources were always used. While measuring various locomotor activities, extreme care was taken to ensure that the room is quiet, and the table onto which assays were performed undisturbed and vibration free. Utmost care was taken to ensure identical handling of flies, in minutest details. For measuring height climbed, climbing speed and distance walked, a single fly was randomly selected at a time. This was achieved by first inverting flies from a given treatment vial into an empty vial and then continuously and gently shaking and inverting both the vials in such a way that a single fly is finally trapped in the empty vial. Once trapped, all the three locomotor activities were measured using the same fly, height climbed, climbing speed and distance walked, in that order. One fly each from NF, STR, PTZ, PILO, TEA, LICA, and ESD, selected randomly, was first scored and then the same exercise was repeated for another two flies. Once a fly was scored for all the three locomotor activities, it was discarded. Flies were particularly checked for intact legs and wings, before they were used in negative geotaxis and horizontal locomotion assays.
# Drosophila melanogaster [2] = details: F1 male and female progeny of drug-fed fathers, routine examination over 30 days
# Description: as §1
# Following morning after pooling males for treatment, drugs (Sigma-Aldrich Co, St. Louis, U.S.A.) were first dissolved in distilled water at following concentration: 33.3 mg/ml of strychnine (STR), 40 mg/ml of pentylenetetrazol (PTZ), 20 mg/ml of tetraethylammonium chloride (TEA), 10 mg/ml of lithium chloride (LICA) and 2 mg/ml of nicotine (NICO). […]
# [3] = F1 males never exposed to drug, fathers drug-fed, assayed on 31st day of emergence, n=30, NF control 25.1
# [4] = F2 females (second batch) never exposed to drug, grandfathers drug-fed, 8th day of emergence, n=30, NF control 21.3
# [5] = drug exposed parent males, day 13 of treatment
# [6] = drug-fed parent males, day 13 of treatment, drug in fly medium (STR 3.33, PTZ 4, TEA 2, LICA 1, NICO 0.2 mg/ml), n=30, NF control 20.86, asterisks = t-test vs NF (*5%, **1%, ***0.1%)
Structure (SMILES),"Height climbed by flies, Mean (F1) (Drosophila melanogaster [1]; [3])","Height climbed by flies, Mean (F2) (Drosophila melanogaster [1]; [4])",change in height climbed compared to normal food (NF) (Drosophila melanogaster [1]; [5]),"Height climbed by flies, Mean (Parents) (Drosophila melanogaster [1]; [6])","Height climbed by flies, Mean (F1) (Drosophila melanogaster [1]; in vivo)","Height climbed by flies, Mean (F2) (Drosophila melanogaster [1]; in vivo)","Height climbed by flies, Mean (Parents) (Drosophila melanogaster [1]; in vivo)",change in height climbed compared to normal food (NF) (Drosophila melanogaster [1]; in vivo),gross locomotor activity compared to control (Drosophila melanogaster [2])
"O=C([O-])[O-].[Li+].[Li+] [LICA, lithium carbonate]",17.7*** cm,27.53** cm,increase in the height climbed,32.96*** cm,,,,,
"CN1CCCC1c1cccnc1 (centres unmarked) [NICO, nicotine]",,,,,10.86*** cm,29.36*** cm,32.16*** cm,increase in the height climbed,climbed very slowly
"C1CCc2nnnn2CC1 [PTZ, pentylenetetrazol]",,,increase in the height climbed,,,,,,
"O=C1C[C@@H]2OCC=C3CN4CC[C@]56c7ccccc7N1[C@H]5[C@H]2[C@H]3C[C@H]46 [STR, strychnine]",16.56*** cm,29.83*** cm,,28** cm,,,,,
"CC[N+](CC)(CC)CC.[Cl-] [TEA, tetraethylammonium chloride]",12.43*** cm,29.46*** cm,increase in the height climbed,32.4*** cm,,,,,

# Source: patent US7005297B2, “Use of neuroactive compounds” (Council of Scientific and Industrial Research, priority 2003, dated 2006)
